{"source": "patent US5641760A", "about": "“Method of treating candida infection” (Pence, Inc., priority 1994, dated 1997)", "key": {"[1]": {"tested_on": "Candida albicans strain #40 fimbriae (enriched fimbriae EF, 66 kDa fimbrial subunit/adhesin protein)", "experiment": "Inhibition of fimbriae binding to immobilized βGalNAc(1-4)βGal-BSA conjugate", "conditions": "plates coated with 10 μg/ml conjugate; read-out: Half-maximal inhibition of fimbriae binding to βGalNAc(1-4)βGal-BSA conjugate", "method": "Further experiments to determine the specificity of fimbrial binding to GSLs were carried out using a plate binding assay, as described above, but immobilizing on the plates a βGalNAc(1-4)βGal-BSA conjugate, synthesized from βGalNAc(1-4)βGal-O(CH2)8 COOCH3 (Sabesan and Lemieux), as described in Part B, above. The coupling ratio of disaccharide: BSA was 12:1. The protocol utilized for this assay was similar to that employed for the assessment of C. albicans fimbriae binding to GSLs except that the plates were coated with 100 μl/well of a 10 μg/ml solution of synthetic βGalNAc(1-4)βGal-BSA conjugate in 0.01M carbonate buffer, pH 9.5.\nUsing this assay, it was first determined that fimbriae bind to the βGalNAc(1-4)βGal-BSA conjugate in a saturable, concentration-dependent manner. FIGS. 12A and 12B show the results of experiments in which compounds were tested for ability to inhibit binding of fimbriae to the βGalNAc(1-4)βGal-BSA conjugate. The protocol used in this assay was similar to the one used in the GSL inhibition assay described above, except that the plates were coated with 100 μl/well of a 10 μg/ml solution of synthetic βGalNAc(1-4)βGal-BSA conjugate in 0.01M carbonate buffer, pH 9.5. As depicted in FIG. 12A, βGalNAc(1-4)βGal-methylester (\"GalNAcGal\") was able to inhibit binding to the GalNAcGal-BSA conjugate in a concentration dependent manner. […]"}, "[2]": {"tested_on": "Candida albicans (binding to human buccal epithelial cells)", "experiment": "Inhibition of C. albicans whole cell binding to human BECs", "type": "cell-based", "conditions": "fungal cells exposed to increasing concentrations, then mixed with BECs", "method": "Further experiments were carried out to determine the ability of βGalNAc(1-4)βGal-methylester (\"GalNAcGal\") to inhibit binding between whole BECs and Candida albicans.\nC. albicans cells were radiolabelled as previously described by McEachran and Irvin (35, 48), incorporated herein by reference. A loopful of culture from Sabouraud-dextrose agar (GIBCO) was used as a source of inoculum for 10 ml of M9 medium supplemented with 0.4% (w/v) glucose. Cultures were incubated at 25° C. for 12 hours with 150 rpm agitation in G25 Gyrotory shaker (New Brunswick Scientific Co.). Cultures were supplemented with 5 μCi/ml of [^35 S]-L-methionine (New England Nuclear, Boston, Mass.) after 10 hours of incubation. […] The amount of [^35 S]-L-methionine incorporated by the C. albicans cells was determined by filtering 1.0 ml of a 1:100 dilution of washed C. albicans culture through a 0.2 μm polycarbonate filter (Nucleopore Corp., Pleasanton, Calif.) in triplicate, washing with 15 ml of PBS, and placing the filter in scintillation vials with 5.0 ml of Aquasol (New England Nuclear, Massachusettes). The counts per minute were determined with a Beckman LS-150 liquid-scintillation counter. […]\nIn a similar manner, experiments were carried out testing the ability of βGalNac(1-4)βGal to inhibit binding of C. albicans to BECs. […] Total cell counts were determined using a hemocytometer. […]"}, "[3]": {"tested_on": "Candida albicans fimbriae (binding to human BECs)", "experiment": "Inhibition of fimbriae binding to human buccal epithelial cells (BECs)", "type": "cell-based", "conditions": "fimbriae 50 μg preincubated with competitor 1 h at 37° C.; 2.0×10^5 BECs; competitor concentration not stated", "method": "The percent inhibition is the inhibition of binding in the presence of the competing antigens with respect to binding observed in the absence of any competitors.\nThe fimbrial adherence assay was performed using a Manifold filtration apparatus equipped with individual vacuum stopcocks (Model FH 225V, Hoefer Scientific Instruments). Polycarbonate filters, 12 μm pore size (Nucleopore Costar Corp.), were pre-incubated overnight at 4° C. with 50 ml of PBS pH 7.2, containing 0.45% (v/v) Tween 20. The pretreated filters were placed into each chamber and washed with 2.5 ml of PBS. 1 ml containing 2.0×10^5 BECs in PBS was added to each chamber. Enriched fimbriae (100 μl/chamber, ranging from 0 to 80 μg fimbriae protein/ml) in PBS containing 0.05% (v/v) Tween-20 was added to each chamber and incubated with the BECs for 1.5 hours at room temperature. Unbound fimbriae were removed with washes of 2.5 ml of PBS. Mouse anti-C. albicans fimbriae monoclonal antibody (ascites fluid diluted 1:3000 with PBS) was added to the BECs (1.2 ml/chamber) and incubated for 1.5 hour at room temperature. BECs were washed five times with 2.5 ml of PBS. Goat anti-mouse IgG(H+L)-peroxidase conjugates (Jackson Laboratories) diluted 1:5000 with PBS was added (1.0 ml/chamber) and incubated for another hour at room temperature. The cells were then washed seven times with 2.5 ml/chamber of PBS. The polycarbonate filters containing BECs were removed from the filtration manifold and placed into glass scintillation vials. The horseradish peroxidase substrate solution (ABTS) was added to each vial (1 ml/vial) and incubated for 30 min at room temperature on a shaker at 100 rpm. The reaction was stopped by the addition of 4 mM sodium azide (200 μl/vial). The substrate solution was pipetted into Eppendorf tubes and centrifuged at 5,000 g for 3 minutes. Aliquots of the supernatants were pipetted into microtiter wells (200 μl/well) and the resulting absorbance at 405 nm was recorded with a Titertek Multiskan Plus microplate recorder. […]"}, "[4]": {"tested_on": "Candida albicans strain #40 fimbriae (enriched fimbriae EF, 66 kDa fimbrial subunit/adhesin protein)", "experiment": "Thin-layer chromatography plate binding assay of fimbriae to glycosphingolipids", "conditions": "10 μg GSL per spot; 100 μg EF/ml; detected with mAb Fm16", "method": "Bound fimbriae on the TLC plates were visualized with a Protein G affinity-purified anti-C. albicans fimbriae monoclonal antibody, Fm16, obtained from ascites tumor in Balb/c mice as described below and a goat anti-mouse IgG alkaline phosphatase. […] (Lane 2).\nThe thin-layer chromatography (TLC) plate binding assay was performed as described by Baker et al. (1) with minor modifications. Aluminum-backed silica gel Si60 high performance TLC plates (Merck Kieselgel Si60, no fluorescence indicator, E. Merck, Darmstadt, Germany) were cut to produce 8×2.5 cm plates which were chromatographed with 100% methanol to the top of the plate to remove impurities and the plates were air dried. Glycosphingolipids (GSLs) (10 μg of each GSL) were loaded 1.0 cm above the base of the plate. The following glycosphingolipids purchased from Sigma Co. (St. Louis, Mo.) were used: mono-sialoganglioside (M-GM1), asialoganglioside GM1 (asialo-GM1), asialoganglioside GM2 (asialo-GM2), lactosylcerebroside (LCS), ceramide trihexoside (CTH). GSLs were separated on the TLC plates in chloroform-methanol-water (65:35:8, v/v/v) and air dried. One set of plates was sprayed with 10% sulphuric acid in ethanol and heated at 100°-150° C. for 5-10 min to char the GSLs for visual detection, and the other set was used for the fimbrial binding assay. The four corners of the plate were bent to 90° and the remainder of the assay was done with the TLC plates inverted in all solutions and at room temperature in an incubator shaker (model G25 Gyroshaker, New Brunswick Scientific, New Jersey, U.S.A.) at 20 rpm agitation. The TLC plate was blocked with 50 mM tris-hydroxy-methyl aminomethane pH 7.5 containing 150 mM NaCl (TBS), 0.25% (w/v) gelatin, 3% (w/v) BSA, 5 mM EDTA and 0.05% (v/v) Nonidet P40 in a glass petri dish for 2 hr at room temperature. The blocking solution was aspirated and 10 ml of EF (100 μg EF/ml in 100 mM TBS, pH 7.5) was then added. The fimbriae were allowed to bind to GSLs for 2 hours at room temperature. The plates were gently washed (2×5 min) with 10 ml of 100 mM TBS containing 0.1% (v/v) Tween 20 (TBST). The murine anti-EF monoclonal antibody, Fm16, was diluted 1:200 with TBST and 10 ml was added to the TLC plates. The solution was incubated for 1 hour at room temperature. Unbound antibodies were removed by washing the plates with 10 ml of TBST (2×5 min). The plate was then incubated with 10 ml of goat anti-mouse immunoglobulin G alkaline phosphatase conjugate (Jackson Laboratories) diluted 1:5,000 with TBST for 1 hour at room temperature. The plates were washed (2×5 min.) with 10 ml of TBST. The alkaline phosphatase activity was localized with Nitro Blue Tetrazolium chloride (NBT) and 5-bromo-4-chloro-3-indolyl phosphate (BCIP) dissolved in 100 mM Tris buffer, pH 9.5 containing 100 mM NaCl and 5 mM MgCl2. Color development was quenched by rinsing the TLC plate with deionized water and submerging the plate into a 150 mM EDTA solution pH 8.0 for 3-5 min. The plates were air dried, stored in plastic in the dark until they were photographed."}}}
{"compound": "COC(=O)CCCCCCCCO[C@@H]1O[C@H](CO)[C@H](O[C@@H]2O[C@H](CO)[C@H](O)[C@H](O)[C@H]2NC(C)=O)[C@H](O)[C@H]1O", "note": "[βGalNAc(1-4)βGal-methylester]", "values": [{"measurement": "IC50", "setting": "[1]", "result": 8.2, "unit": "µM"}, {"measurement": "Inhibition of binding between whole BECs and Candida albicans", "setting": "[2]", "result": "inhibited the fungal cell-BEC interaction in a concentration dependent manner"}, {"measurement": "Inhibition of C. albicans fimbriae binding to BECs", "setting": "[3]", "result": 70, "unit": "%"}]}
{"compound": "gangliotriosylceramide: βGalNAc(1-4)βGal(1-4)βGlc(1-1)Cer [asialo-GM2]", "values": [{"measurement": "Binding of C. albicans fimbriae to glycosphingolipid on TLC plate", "setting": "[4]", "result": "bind specifically"}]}
{"compound": "lactosyl cerebroside [LCS]", "values": [{"measurement": "Binding of C. albicans fimbriae to glycosphingolipid on TLC plate", "setting": "[4]", "result": "failed to bind"}]}
{"compound": "mono-sialoganglioside [GM1]", "values": [{"measurement": "Binding of C. albicans fimbriae to glycosphingolipid on TLC plate", "setting": "[4]", "result": "failed to bind"}]}
